# Laboratory results from patent publication US20170304388A1, “NEW INDICATION OF CARDIOVASCULAR DRUGS FOR PREPARATION OF CANCER INHIBITION PHARMACEUTICAL COMPOSITION” (LAUNX BIOMEDICAL CO., LTD., priority 2014, published 2017).
# How the values were obtained:
# Type in all cases: cell-based
# TOV-21G = experiment: Cell viability analysis (WST-1), TOV-21G; details: Homo sapiens, TOV21G, 72 h, Table 4, repeated experiments, drug 10 μM, read-out: survival rate (viability) of cancer cells, TOV-21G
# Description: (§1) Subculture the different types of cancer cells. The cancer cells includes lung cancer, gastric cancer, hepatic cancer, colon cancer, skin cancer, cervical cancer, prostate cancer, bladder cancer, breast cancer, leukemia, pancreatic cancer, ovarian cancer, tongue cancer, osteosarcoma, and renal cancer. The cell numbers were counted and reseed as 2×10^6 in cell culture plate/flask. Then, the culture medium for culturing the cell lines was added to a volume of 10 ml, and the cells were cultured for 2-3 days. Then, the cells were suspended for loading into 96-well plates. The cell number was 3000 cells and the volume of the culture medium was 100 ul each well.
# (§2) Removing the original culture medium from 96-well plate. Then add 100 μl of commercially drug at a concentration of 10 μM per well. After 72 hours, add the diluted WST-1 reagent to the well with 100 μl/well, and the diluted WST-1 reagent was acquired from the dilution of 9:1 medium and WST-1 stock reagent. Finally, the total volume of each well are 200 μl/well. Culture the 96-well plate at 37° C. for 30 to 90 minutes. Detecting and calculating the survival rate of each cancer cells with an ELISA reader at OD450 nm. The lower viability of cancer cells represents better inhibition effect via the drugs. Otherwise, the higher viability of cancer cells represents worse inhibition effect via the drugs.
# (§3) According to the above mentioned cardiovascular drugs for cancer growth inhibition in Table 3, the inventors took the repeat experiments for the cardiovascular drugs to check the growth inhibitory effects of cancer cells by the cardiovascular drugs. […] 4.
# AsPC-1 = experiment: Cell viability analysis (WST-1), AsPC-1; details: Homo sapiens, ASPC1, 72 h, Table 4, repeated experiments, drug 10 μM, read-out: survival rate (viability) of cancer cells, AsPC-1
# Description: as §1, §2, §3
# [1] = test system: H1650 (Lung Adenocarcinoma); experiment: Cell viability analysis (WST-1), H1650; details: Homo sapiens, NCI-H1650, 72 h, Table 4, repeated experiments, drug 10 μM, WST-1, read-out: survival rate (viability) of cancer cells, H1650
# [2] = test system: A549 (Lung Adenocarcinoma); experiment: Cell viability analysis (WST-1), A549; details: Homo sapiens, A549, 72 h, Table 4, repeated experiments, drug 10 μM, WST-1, read-out: survival rate (viability) of cancer cells, A549
# C-33A = experiment: Cell viability analysis (WST-1), C-33A; details: Homo sapiens, C-33-A, 72 h, Table 4, repeated experiments, drug 10 μM, read-out: survival rate (viability) of cancer cells, C-33A
# Description: as §1, §2, §3
# [3] = test system: MKN-45 (Gastric Adenocarcinoma); experiment: Cell viability analysis (WST-1), MKN-45; details: Homo sapiens, MKN-45, 72 h, Table 4, repeated experiments, drug 10 μM, WST-1, read-out: survival rate (viability) of cancer cells, MKN-45
# cancer cell lines = experiment: Growth inhibitory effects on the panel of cancer cell lines; details: drug 10 μM, 72 hours, WST-1
# 786-O = experiment: Cell viability analysis (WST-1), 786-O; details: Homo sapiens, 786-0, 72 h, Table 4, repeated experiments, drug 10 μM, read-out: survival rate (viability) of cancer cells, 786-O
# Description: as §1, §2, §3
# Hep3B = experiment: Cell viability analysis (WST-1), Hep3B; details: Homo sapiens, Hep3B, 72 h, Table 4, repeated experiments, drug 10 μM, read-out: survival rate (viability) of cancer cells, Hep3B
# Description: as §1, §2, §3
# [4] = test system: LoVo (Colorectal Adenocarcinoma); experiment: Cell viability analysis (WST-1), LoVo; details: Homo sapiens, LoVo, 72 h, Table 4, repeated experiments, drug 10 μM, WST-1, read-out: survival rate (viability) of cancer cells, LoVo
# BCC = experiment: Cell viability analysis (WST-1), BCC; details: BCC, 72 h, Table 4, repeated experiments, drug 10 μM, read-out: survival rate (viability) of cancer cells, BCC
# T24 = experiment: Cell viability analysis (WST-1), T24; details: Homo sapiens, T-24, 72 h, Table 4, repeated experiments, drug 10 μM, read-out: survival rate (viability) of cancer cells, T24
# Description: as §1, §2, §3
# SAS = experiment: Cell viability analysis (WST-1), SAS; details: 72 h, Table 4, repeated experiments, drug 10 μM, read-out: survival rate (viability) of cancer cells, SAS
# Description: as §1, §2, §3
# [5] = test system: HCT116 (Colorectal Carcinoma); experiment: Cell viability analysis (WST-1), HCT116; details: Homo sapiens, HCT-116, 72 h, Table 4, repeated experiments, drug 10 μM, WST-1, read-out: survival rate (viability) of cancer cells, HCT116
# [6] = test system: MCF7 (Mammary Gland, Adenocarcinoma); experiment: Cell viability analysis (WST-1), MCF7; details: Homo sapiens, MCF7, 72 h, Table 4, repeated experiments, drug 10 μM, WST-1, read-out: survival rate (viability) of cancer cells, MCF-7
# MDA-MB231 = experiment: Cell viability analysis (WST-1), MDA-MB231; details: Homo sapiens, MDA-MB-231, 72 h, Table 4, repeated experiments, drug 10 μM, read-out: survival rate (viability) of cancer cells, MDA-MB231
# NIH-OVCAR-3 = experiment: Cell viability analysis (WST-1), NIH-OVCAR-3; details: Homo sapiens, OVCAR-3, 72 h, Table 4, repeated experiments, drug 10 μM, read-out: survival rate (viability) of cancer cells, NIH-OVCAR-3
# Description: as §1, §2, §3
# [7] = test system: HepG2 (Hepatocellular Carcinoma); experiment: Cell viability analysis (WST-1), HepG2; details: Homo sapiens, HepG2, 72 h, Table 4, repeated experiments, drug 10 μM, WST-1, read-out: survival rate (viability) of cancer cells, HepG2
# [8] = test system: A375 (Amelanotic Melanoma); experiment: Cell viability analysis (WST-1), A375; details: Homo sapiens, A-375, 72 h, Table 4, repeated experiments, drug 10 μM, WST-1, read-out: survival rate (viability) of cancer cells, A375
# BxPC-3 = experiment: Cell viability analysis (WST-1), BxPC-3; details: Homo sapiens, BXPC-3, 72 h, Table 4, repeated experiments, drug 10 μM, read-out: survival rate (viability) of cancer cells, BxPC-3
# Description: as §1, §2, §3
# [9] = test system: HeLa (Cervix Adenocarcinoma); experiment: Cell viability analysis (WST-1), HeLa; details: Homo sapiens, HeLa, 72 h, Table 4, repeated experiments, drug 10 μM, WST-1, read-out: survival rate (viability) of cancer cells, HeLa
# U2OS = experiment: Cell viability analysis (WST-1), U2OS; details: Homo sapiens, U2OS, 72 h, Table 4, repeated experiments, drug 10 μM, read-out: survival rate (viability) of cancer cells, U2OS
# Description: as §1, §2, §3
# [10] = test system: PC3 (Prostate Adenocarcinoma); experiment: Cell viability analysis (WST-1), PC3; details: 72 h, Table 4, repeated experiments, drug 10 μM, WST-1, read-out: survival rate (viability) of cancer cells, PC-3
# [11] = test system: TSGH-8301 (Urinary Bladder Carcinoma); experiment: Cell viability analysis (WST-1), TSGH-8301; details: 72 h, Table 4, repeated experiments, drug 10 μM, WST-1, read-out: survival rate (viability) of cancer cells, TSGH-8301
# [12] = test system: AGS (Gastric Adenocarcinoma); experiment: Cell viability analysis (WST-1), AGS; details: 72 h, Table 4, repeated experiments, drug 10 μM, WST-1, read-out: survival rate (viability) of cancer cells, AGS
SMILES,viability at 10 µM (TOV-21G) [%],viability at 10 µM (AsPC-1) [%],viability at 10 µM [1] [%],viability at 10 µM [2] [%],viability at 10 µM (C-33A) [%],viability at 10 µM [3] [%],inhibition effect on different cancer cell lines (in words) (cancer cell lines),viability at 10 µM (786-O) [%],viability at 10 µM (Hep3B) [%],viability at 10 µM [4] [%],viability at 10 µM (BCC) [%],viability at 10 µM (T24) [%],viability at 10 µM (SAS) [%],viability at 10 µM [5] [%],viability at 10 µM [6] [%],viability at 10 µM (MDA-MB231) [%],viability at 10 µM (NIH-OVCAR-3) [%],viability at 10 µM [7] [%],viability at 10 µM [8] [%],viability at 10 µM (BxPC-3) [%],other results
CC(C)N(CCC(C(N)=O)(c1ccccc1)c1ccccn1)C(C)C (centres unmarked) [Disopyramide Phosphate],94.3,77.2,90.5,99.4,98.5,111,significant inhibition effect,102,113,105,110,87.6,96.9,94,107,98.8,103,109,114,69.9,viability at 10 µM [9]: 103%; viability at 10 µM (U2OS): 98.7%; viability at 10 µM [10]: 103%; viability at 10 µM [11]: 115%; viability at 10 µM [12]: 95.9%
"OC(CNCC(O)C1CCc2cc(F)ccc2O1)C1CCc2cc(F)ccc2O1 (centres unmarked) [Nebivolol(Bystolic), Nebivolol]",86.2,88.7,87.4,49,77,52.8,significant inhibition effect,38.3,44.8,85.3,55.8,97.6,75.6,81.9,27,66.4,86.8,42.1,44.9,74.4,viability at 10 µM [9]: 52%; viability at 10 µM (U2OS): 66.6%; viability at 10 µM [10]: 37%; viability at 10 µM [11]: 38%; viability at 10 µM [12]: 26.6%
